Data: patent US4497801A, “New peptides, process for preparation thereof and use thereof” (Fujisawa Pharmaceutical Co., Ltd., priority 1982, dated 1985)
Where a SMILES comes first, the peptide text is derived from it. [ ]: non-standard residue; d: D form. pGlu = O=C1CC[C@@H](C(=O)O)N1

How the values were obtained:
Assay type in all cases: in vivo, ICR strain mice
Escherichia coli No. 22 [1] = experiment: Test 3: protective effect against bacterial infection (i.p. 8, 7, 4, 3 and 2 days before infection); details: mice observed 4 days
Protocol: (§1) Test animals: ICR strain mice, males, 4 weeks old, 10 to 20 animals per group.
(§2) Method of bacterial infection: Escherichia coli No. 22, cultured at 37° C. for 20 hours (concentration: 2.0×10^8 cfu/ml), was suspended in sterile physiological saline and the test mice were intraperitoneally inoculated with 0.5 ml of the suspension.
(3) Test 3 (protective effect against bacterial infection)
Test animals: Same as Test 1
(§3) Administration schedule: Each peptide of this invention in predetermined concentrations (aqueous solutions) was intraperitoneally administered 8, 7, 4, 3 and 2 days before infection.
(§4) Method of bacterial infection: Same as Test 1.

Escherichia coli No. 22 [2] = experiment: Test 2: protective effect against bacterial infection (i.p. 6, 5, 4 and 1 day before infection); details: mice observed 4 days
Protocol: as §1, §2
(2) Test 2 (protective effect against bacterial infection)
(§5) Test animals: Same as Test 1.
Administration schedule: Each peptide of this invention in predetermined concentrations (aqueous solutions) was intraperitoneally administered 6, 5, 4 and 1 day before infection.
as §4

Escherichia coli No. 22 [3] = experiment: Test 1: protective effect against bacterial infection (i.p. 7, 6, 3, 2 and 1 day before infection); details: mice observed 4 days
Protocol: (1) Test 1 (protective effect against bacterial infection)
as §1
(§6) Administration schedule: The peptides of this invention in predetermined concentrations (aqueous solutions) were intraperitoneally administered 7, 6, 3, 2 and 1 day before infection.
as §2

[4] = tested on: Herpes simplex virus type 1 Miyama strain; experiment: Test 6: protective effect against virus infection; details: 0.01 mg/kg i.p. 8, 7, 4, 3 and 2 days before i.p. HSV-1 infection; mice observed 14 days
Protocol: as §1
(6) Test 6 (protective effect against virus infection)
Test animals: Same as Test 5.
Administration schedule: Each peptide of this invention in aqueous solution was intraperitoneally administered 8, 7, 4, 3 and 2 days before infection (0.01 mg/kg).
(§7) Method of virus infection: Herpes simplex virus type 1 Miyama strain (concentration: 2×10^3 pfu/ml) was suspended in sterile physiological saline and 0.2 ml of the suspension was intraperitoneally inoculated.

Escherichia coli No. 22 [5] = experiment: Test 5: protective effect against bacterial infection (i.p. 7, 6, 3, 2 and 1 day before infection); details: mice observed 4 days
Protocol: (5) Test 5 (protective effect against bacterial infection)
as §1, §6, §2

[6] = tested on: Herpes simplex virus type 1 Miyama strain; experiment: Test 4: protective effect against virus infection; details: mice observed 14 days
Excerpt: as §1
(4) Test 4 (protective effect against virus infection)
as §5, §3, §7

[7] = 0.01 mg/kg i.p. 8, 7, 4, 3 and 2 days before i.p. E. coli infection
[8] = 0.1 mg/kg i.p. 8, 7, 4, 3 and 2 days before i.p. E. coli infection
[9] = 1.0 mg/kg i.p. 8, 7, 4, 3 and 2 days before i.p. E. coli infection
[10] = 1 mg/kg i.p. 6, 5, 4 and 1 day before i.p. E. coli infection
[11] = 0.01 mg/kg i.p. 7, 6, 3, 2 and 1 day before i.p. E. coli infection
[12] = 0.1 mg/kg i.p. 7, 6, 3, 2 and 1 day before i.p. E. coli infection
[13] = 1.0 mg/kg i.p. 7, 6, 3, 2 and 1 day before i.p. E. coli infection

Compound	Survival rate (%) (Escherichia coli No. 22 [1]; [7])	Survival rate (%) (Escherichia coli No. 22 [1]; [8])	Survival rate (%) (Escherichia coli No. 22 [1]; [9])	other results
H-KSKLKKTETQE-OH [Example 9-(2), H-Lys-Ser-Lys-Leu-Lys-Lys-Thr-Glu-Thr-Gln-Glu-OH]	70%	70%	70%	
H-TKEKLKSELVAN-OH [Example 5-(2), H-Thr-Lys-Glu-Lys-Leu-Lys-Ser-Glu-Leu-Val-Ala-Asn-OH]				Survival rate (%) (Escherichia coli No. 22 [2]; [10]): 50%
H-NVKAKIQDKEG-OH [Example 8-(2), H-Asn-Val-Lys-Ala-Lys-Ile-Gln-Asp-Lys-Glu-Gly-OH]	80%	60%	90%	
H-DLKEKKEVVEE-OH [Example 6-(2), H-Asp-Leu-Lys-Glu-Lys-Lys-Glu-Val-Val-Glu-Glu-OH]				Survival rate (%) (Escherichia coli No. 22 [3]; [11]): 70%; Survival rate (%) (Escherichia coli No. 22 [3]; [12]): 40%; Survival rate (%) (Escherichia coli No. 22 [3]; [13]): 60%
H-EQEKQ-OH [Example 11-(2), H-Glu-Gln-Glu-Lys-Gln-OH]	70%	50%	70%	
C[C@H](NC(=O)[C@H](CCCCN)NC(=O)[C@@H]1CCC(=O)N1)C(=O)N[C@@H](CCCCN)C(=O)N[C@@H](CCCCN)C(=O)N[C@@H](CCC(N)=O)C(=O)NCC(=O)NCC(=O)N[C@@H](CO)C(=O)N[C@@H](CC(N)=O)C(=O)O [Example 16-(4), pGlu-Lys-Ala-Lys-Lys-Gln-Gly-Gly-Ser-Asn-OH] ([pGlu]KAKKQGGSN-OH)				Survival rate (%) [4]: 85%
H-KFDKSKLKKTETQE-OH [Example 10-(2), H-Lys-Phe-Asp-Lys-Ser-Lys-Leu-Lys-Lys-Thr-Glu-Thr-Gln-Glu-OH]	50%	60%	70%	
C[C@H](NC(=O)[C@@H]1CCC(=O)N1)C(=O)N[C@@H](CCCCN)C(=O)N[C@@H](CCCCN)C(=O)N[C@@H](CCC(N)=O)C(=O)NCC(=O)NCC(=O)N[C@@H](CO)C(=O)N[C@@H](CC(N)=O)C(=O)O [Example 17-(2), pGlu-Ala-Lys-Lys-Gln-Gly-Gly-Ser-Asn-OH] ([pGlu]AKKQGGSN-OH)				Survival rate (%) [4]: 90%
H-EKLKSELVAN-OH [Example 4-(2), H-Glu-Lys-Leu-Lys-Ser-Glu-Leu-Val-Ala-Asn-OH]				Survival rate (%) (Escherichia coli No. 22 [2]; [10]): 50%
pGlu-Lys-Ala-Lys-Ser-Gln-Gly-Gly-Ser-Asn-OH ([pGlu]KAKSQGGSN-OH; SMILES C[C@H](NC(=O)[C@H](CCCCN)NC(=O)[C@@H]1CCC(=O)N1)C(=O)N[C@@H](CCCCN)C(=O)N[C@@H](CO)C(=O)N[C@@H](CCC(N)=O)C(=O)NCC(=O)NCC(=O)N[C@@H](CO)C(=O)N[C@@H](CC(N)=O)C(=O)O) [Example 18-(2)]				Survival rate (%) (Escherichia coli No. 22 [5]; [11]): 60%; Survival rate (%) (Escherichia coli No. 22 [5]; [12]): 70%; Survival rate (%) (Escherichia coli No. 22 [5]; [13]): 80%
H-KEKKE-OH [Example 14-(2), H-Lys-Glu-Lys-Lys-Glu-OH]	50%	50%	70%	
H-TKDLKEKKEVVEE-OH [Example 7-(2), H-Thr-Lys-Asp-Leu-Lys-Glu-Lys-Lys-Glu-Val-Val-Glu-Glu-OH]				Survival rate (%) (Escherichia coli No. 22 [3]; [11]): 50%; Survival rate (%) (Escherichia coli No. 22 [3]; [12]): 70%; Survival rate (%) (Escherichia coli No. 22 [3]; [13]): 40%
H-KETIEQEKQ-OH [Example 12-(2), H-Lys-Glu-Thr-Ile-Glu-Gln-Glu-Lys-Gln-OH]	70%	50%	50%	
H-KLKSE-OH [Example 15-(2), H-Lys-Leu-Lys-Ser-Glu-OH]	80%	100%	80%	
H-SKLKSNSTHQ-OH [Example 1-(2), H-Ser-Lys-Leu-Lys-Ser-Asn-Ser-Thr-His-Gln-OH]				Survival rate (%) (Escherichia coli No. 22 [2]; 0.1 mg/kg i.p. 6, 5, 4 and 1 day before i.p. E. coli infection): 40%; Survival rate (%) (Escherichia coli No. 22 [2]; [10]): 40%; Survival rate (%) ([6]; 0.01 mg/kg i.p. 8, 7, 4, 3 and 2 days before i.p. HSV-1 infection): 80%; Survival rate (%) ([6]; 0.1 mg/kg i.p. 8, 7, 4, 3 and 2 days before i.p. HSV-1 infection): 40%; Survival rate (%) ([6]; 1 mg/kg i.p. 8, 7, 4, 3 and 2 days before i.p. HSV-1 infection): 60%
